Test results as given in the CheMixHub viscosity set.
“And” between values parts separate entries of the source, which are not always exact repeats. Equal entries are not always repeated.

Legend:
[1] = xn = mol fraction of the nth substance listed

CCCC=O
Details | viscosity [mPa·s]
298.1 K, 101 kPa | 0.403

CCCCCCCCCCCCc1ccccc1
102 kPa
Details | viscosity [mPa·s]
293.15 K | 5.47
303.15 K | 4.21
313.15 K | 3.33
323.15 K | 2.71

CCCCCCCCCCCCCC(=O)OC
Details | viscosity [mPa·s]
323.15 K, 100 kPa | 2.301

CCOC(=O)CC
Details | viscosity [mPa·s]
303.15 K, 101 kPa | 0.4833

CCCCCOC(C)=O
viscosity
Details | 293.15 K | 303.15 K | 313.15 K | 323.15 K
101 kPa | – | – | 0.663 mPa·s | 0.589 mPa·s
101.3 kPa | – | 0.7522 mPa·s and 0.7522 mPa·s | – | –
101.33 kPa | 0.931 mPa·s | 0.805 mPa·s | 0.676 mPa·s | 0.552 mPa·s

O=C([O-])CC(O)(CC(=O)[O-])C(=O)[O-].[NH3+]CCO.[NH3+]CCO.[NH3+]CCO
101 kPa
Details | viscosity [mPa·s]
293.15 K | 183.9
303.15 K | 113.8
313.15 K | 67.2
323.15 K | 37.38

C=CC(=O)OC
viscosity
Details | 293.15 K | 298.15 K | 303.15 K | 308.15 K | 313.15 K | 318.15 K
100 kPa | 0.5038 mPa·s | 0.4602 mPa·s | 0.435 mPa·s and 0.4197 mPa·s | 0.415 mPa·s and 0.3856 mPa·s | 0.396 mPa·s and 0.355 mPa·s | 0.3276 mPa·s
101 kPa | 0.5038 mPa·s and 0.492 mPa·s and 0.502 mPa·s | – | – | – | – | 0.3276 mPa·s and 0.375 mPa·s and 0.334 mPa·s

Cc1ccccc1O
viscosity
Details | 293.15 K | 298.15 K | 308.15 K | 313.15 K | 318.15 K | 323.15 K
101 kPa | 9.56 mPa·s | 7.607 mPa·s and 7.608 mPa·s | – | 4.312 mPa·s and 4.238 mPa·s and 4.1 mPa·s | 3.506 mPa·s and 2.215 mPa·s | –
101.3 kPa | – | – | – | 4.243 mPa·s | – | 3.02 mPa·s
101.33 kPa | – | 7.493 mPa·s | 4.853 mPa·s | – | 3.359 mPa·s | 2.83 mPa·s

CN(C)CCO
viscosity
Details | 293.15 K | 298.15 K | 303.15 K | 308.15 K | 313.15 K | 318.15 K | 323.15 K
101 kPa | 4.27 mPa·s | 3.78 mPa·s | 3.24 mPa·s and 2.835 mPa·s | 2.91 mPa·s and 2.485 mPa·s | 2.53 mPa·s and 2.186 mPa·s | 2.27 mPa·s and 1.938 mPa·s | 2.04 mPa·s and 1.723 mPa·s
101.3 kPa | – | – | 2.419 mPa·s | – | 2.023 mPa·s | – | 1.734 mPa·s

CC(=O)OC(C)(C)C
101 kPa
Details | viscosity [mPa·s]
298.15 K | 0.683
308.15 K | 0.596

CC(C)(C)c1ccccc1
viscosity [mPa·s]
Details | 293.15 K | 298.15 K | 303.15 K | 308.15 K | 313.15 K | 318.15 K | 323.15 K
100 kPa | – | 1.118 | – | 0.97 | – | 0.853 | –
102 kPa | 1.13 | – | 0.982 | – | 0.854 | – | 0.751

O=C1OCCO1
viscosity
Details | 298.15 K | 313.15 K | 323.15 K
100 kPa | – | 1.81 mPa·s and 1.917 mPa·s | 1.56 mPa·s
101.3 kPa | 2.263 mPa·s | 1.879 mPa·s | –
101.33 kPa | – | 1.93 mPa·s | –

C=CC(=O)OCCCC
viscosity
Details | 293.15 K | 298.15 K | 303.15 K | 308.15 K | 313.15 K | 318.15 K
100 kPa | 0.8996 mPa·s | 0.8385 mPa·s | 0.782 mPa·s | 0.7306 mPa·s | 0.6833 mPa·s | 0.6387 mPa·s
101 kPa | 0.8996 mPa·s and 0.868 mPa·s | – | 0.782 mPa·s and 0.751 mPa·s and 0.781 mPa·s | – | 0.6833 mPa·s and 0.658 mPa·s and 0.684 mPa·s | 0.6387 mPa·s and 0.618 mPa·s
101.33 kPa | 0.8763 mPa·s | – | 0.7568 mPa·s | – | 0.6609 mPa·s | –

CC1CCCO1 (configuration not stated)
298.15 K
Details | viscosity [mPa·s]
101 kPa | 0.463
101.33 kPa | 0.4753

C1CCC2=[NH+]CCCN2CC1.c1nc[n-]n1
Details | viscosity [mPa·s]
303.15 K, 100 kPa | 1356

CCCCCCCC[P+](CC)(CC)CC.O=[N+]([O-])c1cnc[n-]1
100 kPa
Details | viscosity [mPa·s]
293.15 K | 398
298.15 K | 286
303.15 K | 212
308.15 K | 160
313.15 K | 124
318.15 K | 98
323.15 K | 78

CC(C)CO
Details | viscosity
293.15 K, 101 kPa | 4.02 mPa·s and 4.009 mPa·s
293.15 K, 101.33 kPa | 4.008 mPa·s and 2.75 mPa·s
297 K, 101 kPa | 3.569 mPa·s
298.15 K, 101.3 kPa | 3.247 mPa·s and 3.256 mPa·s
298.15 K, 101.33 kPa | 3.537 mPa·s and 3.41 mPa·s and 3.41 mPa·s
303 K, 101 kPa | 2.943 mPa·s
303 K, 101.33 kPa | 2.58 mPa·s
303.15 K, 100 kPa | 2.938 mPa·s and 2.781 mPa·s
303.15 K, 101.3 kPa | 2.745 mPa·s and 2.743 mPa·s and 2.842 mPa·s
303.15 K, 101.33 kPa | 2.54 mPa·s and 2.982 mPa·s and 2.1 mPa·s
308 K, 101 kPa | 2.261 mPa·s
308.15 K, 100 kPa | 2.487 mPa·s and 2.231 mPa·s
308.15 K, 101.33 kPa | 2.433 mPa·s
313 K, 101 kPa | 2.169 mPa·s
313.15 K, 100 kPa | 2.174 mPa·s
313.15 K, 101 kPa | 2.17 mPa·s and 2.138 mPa·s and 1.96 mPa·s
313.15 K, 101.3 kPa | 2.08 mPa·s
313.15 K, 101.33 kPa | 2.186 mPa·s and 1.65 mPa·s
318.15 K, 101 kPa | 1.751 mPa·s and 1.834 mPa·s
318.15 K, 101.33 kPa | 1.804 mPa·s
323 K, 101 kPa | 1.632 mPa·s
323.15 K, 100 kPa | 1.637 mPa·s
323.15 K, 101.33 kPa | 1.663 mPa·s

CCn1cc[n+](C)c1.O=S(=O)([O-])C(F)(F)F
101 kPa
Details | viscosity
293.15 K | 48.6 mPa·s
298.15 K | 43.8 mPa·s and 40.44 mPa·s
303.15 K | 36.7 mPa·s and 34.02 mPa·s
308.15 K | 32.28 mPa·s
313.15 K | 26.6 mPa·s and 24.89 mPa·s
318.15 K | 21.55 mPa·s
323.15 K | 18.64 mPa·s

CCCCCC
viscosity
Details | 293.15 K | 298 K | 303 K | 303.15 K | 308.15 K | 313 K | 313.15 K | 318.15 K | 323 K | 323.15 K
100 kPa | – | – | – | 0.2941 mPa·s | – | – | 0.259 mPa·s and 0.26 mPa·s and 0.257 mPa·s | – | – | 0.2345 mPa·s and 0.231 mPa·s
101 kPa | 0.31 mPa·s and 0.3119 mPa·s | 0.31 mPa·s | 0.2673 mPa·s | – | 0.268 mPa·s and 0.265 mPa·s | 0.2482 mPa·s | – | 0.3 mPa·s and 0.245 mPa·s | 0.2285 mPa·s | 0.2333 mPa·s and 0.235 mPa·s
101.3 kPa | – | – | – | 0.2776 mPa·s and 0.286 mPa·s and 0.294 mPa·s | – | – | 0.274 mPa·s | – | – | 0.251 mPa·s
101.33 kPa | 0.31 mPa·s | – | 0.273 mPa·s and 0.2865 mPa·s | – | – | 0.247 mPa·s | 0.2391 mPa·s and 0.257 mPa·s and 0.257 mPa·s | 0.247 mPa·s | 0.226 mPa·s | 0.2524 mPa·s

CCCCCOC(=O)CCC
101 kPa
Details | viscosity [mPa·s]
298.15 K | 1.07
313.15 K | 0.86

ClCC(Cl)Cl
viscosity [mPa·s]
Details | 298.15 K | 308.15 K | 313.15 K
100 kPa | – | 0.953 | 0.887
101 kPa | 1.061 | – | –

C=CC(=O)OC + CCCCCO
viscosity [mPa·s], [1], 101.33 kPa
Details | 308.15 K | 318.15 K
x1 = 0.0469 | 2.288 | 1.82
x1 = 0.148 | 1.725 | 1.406
x1 = 0.2501 | 1.327 | 1.104
x1 = 0.3489 | 1.053 | 0.89
x1 = 0.4436 | 0.86 | 0.735
x1 = 0.5084 | 0.758 | 0.651
x1 = 0.545 | 0.708 | 0.61
x1 = 0.6489 | 0.594 | 0.514
x1 = 0.7484 | 0.513 | 0.445
x1 = 0.8456 | 0.454 | 0.392
x1 = 0.9477 | 0.409 | 0.35

CCC[N+]1(C)CCCCC1.O=S(=O)([N-]S(=O)(=O)C(F)(F)F)C(F)(F)F
101.3 kPa
Details | viscosity [mPa·s]
293.15 K | 199
298.15 K | 147
303.15 K | 112
308.15 K | 86.6
313.15 K | 68.5
318.15 K | 55.1
323.15 K | 45.1

CCCC=O + CCCCO
viscosity [mPa·s], [1], 100 kPa
Details | 294.53 K | 294.63 K | 319.13 K | 320.13 K
x2 = 0.59 | – | 5.78 | 2.552 | –
x2 = 0.9 | 5.49 | – | – | 2.98
